Test results published in patent US8603986B2, “Compounds and methods for modulating cadherin-mediated processes” (McGill University, priority 2005, dated 2013).
pKd: −log10 of the molar value. Marks after values point to notes of the source that are not given here.

Columns and labels:
[1] = test system: SKOV3 human ovarian cancer cells; test: Disruption of SKOV3 cell adhesion in confluent cultures; type: cell-based; design: key to Peptide Disrupts Adhesion of SKOV3 cells: +: yes; −: no; details: for Peptide Disrupts Adhesion of SKOV3 cells: Table 8 summary
Protocol: SKOV3 human ovarian cancer cells (kind gift from Dr. Riaz Farookhi, McGill University, Montreal, Quebec) were cultured in MEM containing 1.25 μg/ml Fungizone, 100 U/ml penicillin 100 μg/ml streptomycin, 0.1 mM nonessential amino acids, 2 mM L-glutamine, 10 μg/ml ml gentamicin and 10% fetal bovine serum. All culture reagents were purchased from GIBCO (Burlington, ON). To obtain confluent cell cultures, 100,000 cells per well were plated onto a 4 well slide (NalgeNunc, Naperville, Ill.) and incubated for 24 h at 37° C., in a humidified atmosphere (5% CO2).
(§1) Depending on their solubility, peptides were dissolved directly in culture medium and added to confluent cell cultures at the indicated concentration, or they were dissolved in dimethylformamide (DMF) to obtain a 100× concentrated solution or in water to obtain a 10× concentrated solution. The peptide stock solutions were further diluted with culture medium to a final working concentration and added to confluent cell cultures. Culture medium containing 1% solvent was used as a control. At the end of the treatment, cells were either examined by phase contrast microscopy, or fixed with 4% paraformaldehyde in PBS and stained with hematoxylin prior to light microscopic examination.
Confluent cultures of SKOV3 cells were incubated in the presence of individual peptides.

[2] = biological target: T1, E-cadherin/Fc chimeric protein (Homo sapiens, UniProt P12830); test: Table 8 summary: peptide binds to E-cad/Fc; type: binding; design: key: +: yes; −: no
T1 construct: extracellular domain of human E-cadherin (Asp155-Ile707); purchased R&D Systems, Minneapolis, Minn
T1 sequence (P12830 155-707): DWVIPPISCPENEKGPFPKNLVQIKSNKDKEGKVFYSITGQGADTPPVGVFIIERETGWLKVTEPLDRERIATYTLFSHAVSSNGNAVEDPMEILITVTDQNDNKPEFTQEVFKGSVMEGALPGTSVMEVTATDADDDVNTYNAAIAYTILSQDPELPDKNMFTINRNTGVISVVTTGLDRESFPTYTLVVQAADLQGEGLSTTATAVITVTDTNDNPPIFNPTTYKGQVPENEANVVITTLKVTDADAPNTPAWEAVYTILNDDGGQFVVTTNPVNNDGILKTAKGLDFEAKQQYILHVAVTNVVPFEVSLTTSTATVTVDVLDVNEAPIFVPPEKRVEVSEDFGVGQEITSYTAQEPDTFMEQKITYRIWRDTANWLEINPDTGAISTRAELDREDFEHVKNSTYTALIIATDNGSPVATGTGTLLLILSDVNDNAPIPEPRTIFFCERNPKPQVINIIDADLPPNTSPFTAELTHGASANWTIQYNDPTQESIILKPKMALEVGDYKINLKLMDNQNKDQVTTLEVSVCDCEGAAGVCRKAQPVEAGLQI

[3] = biological target: T2, N-cadherin/Fc chimeric protein (Homo sapiens, UniProt P19022); test: Table 8 summary: peptide binds to N-cad/Fc; type: binding; design: key: +: yes; −: no
T2 construct: extracellular domain of human N-cadherin (Asp160-Ala724); purchased R&D Systems, Minneapolis, Minn
T2 sequence (P19022 160-724): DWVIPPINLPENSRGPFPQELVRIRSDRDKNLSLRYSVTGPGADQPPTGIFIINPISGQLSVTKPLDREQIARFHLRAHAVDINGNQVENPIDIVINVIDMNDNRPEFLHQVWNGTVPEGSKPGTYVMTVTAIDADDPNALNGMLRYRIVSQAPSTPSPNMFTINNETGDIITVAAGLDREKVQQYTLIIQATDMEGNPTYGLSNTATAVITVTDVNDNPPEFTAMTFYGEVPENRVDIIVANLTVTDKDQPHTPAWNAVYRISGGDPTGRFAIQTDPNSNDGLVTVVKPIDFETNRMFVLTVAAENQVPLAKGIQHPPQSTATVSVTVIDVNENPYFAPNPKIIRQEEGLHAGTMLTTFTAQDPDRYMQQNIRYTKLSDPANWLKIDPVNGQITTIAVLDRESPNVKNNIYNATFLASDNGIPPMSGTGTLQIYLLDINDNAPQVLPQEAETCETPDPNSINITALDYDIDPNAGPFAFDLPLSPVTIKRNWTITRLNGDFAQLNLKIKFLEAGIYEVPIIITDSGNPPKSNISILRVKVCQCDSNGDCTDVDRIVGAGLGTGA

[4] = test system: MCF-7 human breast cancer cells; test: Disruption of MCF-7 cell adhesion; type: cell-based; design: key to Peptide Disrupts Adhesion of MCF-7 cells: +: yes; −: no; details: for Peptide Disrupts Adhesion of MCF-7 cells: Table 8 summary
Protocol: MCF-7 human breast cancer cells (kind gift from Dr. Riaz Farookhi, McGill University, Montreal, Quebec) were cultured in the same medium as SKOV3 but supplemented with 1 mM sodium pyruvate.
as §1

[5] = test system: Human Umbilical Vein Endothelial Cells (HUVEC); test: Disruption of HUVEC adhesion; type: cell-based; design: key to Peptide Disrupts Adhesion of HUVEC: +: yes; −: no; details: for Peptide Disrupts Adhesion of HUVEC: Table 8 summary
Protocol: (§2) Human Umbilical Vein Endothelial Cells (HUVEC) and Human Dermal Microvascular Endothelial Cells (HMVEC-d) were purchased from Cambrex Bio Science Walkersville, Inc. Clonetics EGM-2 and EGM-2-MV Bulletkits (Cambrex Bio Science Walkersville, Inc) were used to culture HUVEC and HMVEC-d respectively. Cells (40,000 per well) were plated onto a 4 well slide (NalgeNunc, Naperville, Ill.) and incubated at 37° C., in a humidified atmosphere (5% CO2).
as §1

[6] = test system: Human Dermal Microvascular Endothelial Cells (HMVEC-d); test: Disruption of HMVEC adhesion; type: cell-based; design: key to Peptide Disrupts Adhesion of HMVEC: +: yes; −: no; details: for Peptide Disrupts Adhesion of HMVEC: Table 8 summary
Protocol: as §2, §1

[7] = biological target: T2, N-cadherin/Fc chimeric protein; test: Surface plasma resonance (Biacore) analysis on N-cadherin/Fc; type: binding
Protocol: (§3) The binding of representative peptide modulating agents to either N- or VE-cadherin/Fc chimeric proteins was assessed using a BIAcore X™ Biosensor (Pharmacia Ltd., Sweden). Goat anti-human IgG recognizing N- and VE-cadherin/Fc chimeric proteins (R&D Systems, Minneapolis, Minn.) was immobilized on a CM5 sensor chip (Biacore S51) using standard amine-coupling method at 25° C. HBS-P buffer (10 mM HEPES, 0.15 M NaCl, 0.005% p20, pH 7.4) was used as the running buffer. The carboxymethyl dextran surface was activated with a 7 min injection of a 1:1 ratio of 0.4 M EDC and 0.1 M NHS. The goat anti-human IgG (Caltag Lab.) was coupled to the surface with a 7 min injection diluted in 10 mM sodium acetate, pH 5.0 to a final concentration 80 ug/ml. Remaining activated groups were blocked with a 7 min injection of 1 M ethanolamine, pH 8.5. N- and VE-cadherin/Fc chimeric proteins were dissolved in buffer containing 50 mM Tris HCl, 150 mM NaCl, and 1.2 mM CaCl2 pH 7.5 to a concentration of 0.2 μM and captured on spots 1 and 2 at a flow rate of 30 μl/min for 30 min with resulting density 927 RU for N-cadherin/Fc chimeric protein and 1008 RU for VE-cadherin/Fc chimeric protein.
The linear peptide H-SWTLYTPSGQSK-NH2 (SEQ ID NO: 16) and the control linear peptide H-SRTLYTPSGQSK-NH2 (SEQ ID NO: 58) were passed over surfaces coated with captured N- and VE-cadherin/Fc chimeric proteins in running buffer containing 50 mM Tris-HCl, 150 mM NaCl, and 1.2 mM CaCl2, pH 7.5 at concentrations ranging from 100-1.56 uM. The experiment was performed at a flow rate 90 ul/min at 25° C. […] All responses were referenced for reference surface and blank injections of running buffer.

[8] = biological target: T3, VE-cadherin/Fc chimeric protein (Homo sapiens, UniProt P33151); test: Surface plasma resonance (Biacore) analysis on VE-cadherin/Fc; type: binding; details: 100-1.56 uM
T3 construct: purchased R&D Systems, Minneapolis, Minn
Protocol: as §3, with “protein. […]” for “protein.”

[9] = confluent cultures, concentration not given
[10] = 1 mg/ml medium, up to 1 h incubation

T3 sequence (P33151 with tags, fused parts or gaps limits assumed, species assumed): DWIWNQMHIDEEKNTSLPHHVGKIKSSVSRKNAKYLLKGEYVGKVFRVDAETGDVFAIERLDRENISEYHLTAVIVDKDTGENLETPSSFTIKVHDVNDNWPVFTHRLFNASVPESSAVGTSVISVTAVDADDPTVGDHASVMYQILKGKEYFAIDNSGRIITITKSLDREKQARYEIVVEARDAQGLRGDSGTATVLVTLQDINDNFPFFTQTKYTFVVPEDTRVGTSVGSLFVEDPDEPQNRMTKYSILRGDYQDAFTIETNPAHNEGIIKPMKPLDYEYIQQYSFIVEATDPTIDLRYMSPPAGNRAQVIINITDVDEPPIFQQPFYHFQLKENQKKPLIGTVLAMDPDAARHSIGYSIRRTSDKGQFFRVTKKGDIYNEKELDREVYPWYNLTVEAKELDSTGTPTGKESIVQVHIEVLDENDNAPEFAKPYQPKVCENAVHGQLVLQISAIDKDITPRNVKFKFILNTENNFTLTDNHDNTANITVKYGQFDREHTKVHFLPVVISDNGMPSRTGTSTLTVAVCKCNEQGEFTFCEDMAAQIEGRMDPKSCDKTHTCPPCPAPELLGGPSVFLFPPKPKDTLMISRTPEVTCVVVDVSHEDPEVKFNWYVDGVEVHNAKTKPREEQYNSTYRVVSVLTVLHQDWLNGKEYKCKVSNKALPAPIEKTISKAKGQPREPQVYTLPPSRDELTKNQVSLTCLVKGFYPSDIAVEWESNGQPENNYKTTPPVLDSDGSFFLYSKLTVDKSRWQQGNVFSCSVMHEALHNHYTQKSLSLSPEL

H-AELRVSSP-NH2 [reference compound]
Peptide Disrupts Adhesion of SKOV3 cells [1]: −
effect on SKOV3 cell adhesion [1, 9]: had no biological activity

H-EWMIHYDSALTS-NH2
effect on SKOV3 cell adhesion ([1]; 1 mg/ml): disrupted
Peptide Disrupts Adhesion of SKOV3 cells [1]: +
Peptide Binds to E-cad/Fc [2]: +
Peptide Binds to N-cad/Fc [3]: +
effect on MCF-7 cell adhesion ([4]; 1 mg/ml): disrupted
Peptide Disrupts Adhesion of MCF-7 cells [4]: +

H-HWYITTGPVREK-NH2
Peptide Binds to E-cad/Fc [2]: −
Peptide Binds to N-cad/Fc [3]: +
effect on HUVEC adhesion [5, 10]: had no effect on HUVEC adhesion
Peptide Disrupts Adhesion of HUVEC [5]: −

H-RYVCVGAH-NH2 [reference compound]
Peptide Disrupts Adhesion of SKOV3 cells [1]: −
effect on SKOV3 cell adhesion [1, 9]: had no effect on cell adhesion

H-SRTLYTPSGQSK-NH2 [reference compound]
Peptide Disrupts Adhesion of HMVEC [6]: −
effect on HMVEC adhesion ([6]; highest concentration of 1 mg/ml): had no biological activity
Peptide Disrupts Adhesion of SKOV3 cells [1]: −
effect on SKOV3 cell adhesion [1, 9]: had no effect
binding to N-cadherin/Fc chimeric protein ([7]; 100-1.56 uM): did not bind
Peptide Binds to N-cad/Fc [3]: −
binding to VE-cadherin/Fc chimeric protein [8]: did not bind
effect on HUVEC adhesion [5, 10]: had no biological activity
Peptide Disrupts Adhesion of HUVEC [5]: −

H-SWELYYPLRANL-NH2
effect on SKOV3 cell adhesion ([1]; 1 mg/ml): disrupted
Peptide Disrupts Adhesion of SKOV3 cells [1]: +
Peptide Binds to E-cad/Fc [2]: +
Peptide Binds to N-cad/Fc [3]: +
effect on MCF-7 cell adhesion ([4]; 1 mg/ml): disrupted
Peptide Disrupts Adhesion of MCF-7 cells [4]: +

H-SWTLYTPSGQSK-(succinyl-PEG5000-OMe)—NH2 (H-SWTLYTPSGQSK-NH2; also: succinyl-PEG5000-OMe attached, site not given here)
activity on HUVEC adhesion ([5]; 4.7 mg/ml): strong activity
incubation time within which HUVEC adhesion was disrupted ([5]; 4.7 mg/ml): within one hour

H-SWTLYTPSGQSK-NH2 [H-SWTLYTPSGQSK-NH2]
effect on HMVEC adhesion ([6]; 0.062 mg/ml): disrupted
effect on HMVEC adhesion ([6]; 0.125 mg/ml): more pronounced effects
effect on HMVEC adhesion ([6]; 0.5 mg/ml and higher): still stronger effects
Peptide Disrupts Adhesion of HMVEC [6]: +
Peptide Disrupts Adhesion of SKOV3 cells [1]: +
effect on SKOV3 cell adhesion [1, 9]: disrupted SKOV3 cell adhesion
Peptide Binds to E-cad/Fc [2]: −
pKd ([7]; 25° C., 1.2 mM CaCl2): 4.18
kd ([7]; 25° C., 1.2 mM CaCl2): 0.407(8) s^−1
kon ([7]; pH 7.5, 25° C., 1.2 mM CaCl2, read-out: ka): 6100 M⁻¹ s⁻¹
Peptide Binds to N-cad/Fc [3]: +
binding to VE-cadherin/Fc chimeric protein [8]: did not bind
effect on HUVEC adhesion ([5]; 0.062 mg/ml, 1 h incubation): moderate activity
incubation time after which HUVEC adhesion was disrupted ([5]; 1 mg/ml medium): 5 min
incubation time of maximum effect on HUVEC adhesion ([5]; 1 mg/ml medium): 1 h
effect on HUVEC adhesion [5, 10]: disrupted HUVEC adhesion
Peptide Disrupts Adhesion of HUVEC [5]: +
peptide concentrations disrupting HUVEC adhesion ([5]; after 1 h incubation, dose-dependent): ≥ 0.125 mg/mL
Peptide Disrupts Adhesion of MCF-7 cells [4]: −
effect on MCF-7 cell adhesion ([4]; concentration not given): did not affect MCF-7 cell adhesion

H-WELRVSSP-NH2
effect on cell adhesion and cell morphology ([1]; 0.5 mg/ml, SKOV3 per b307 and Table 8): capable of disrupting cell adhesion and altering cell morphology
Peptide Disrupts Adhesion of SKOV3 cells [1]: +
Peptide Binds to E-cad/Fc [2]: −
Peptide Binds to N-cad/Fc [3]: +

H-WYVCVGAH-NH2
effect on SKOV3 cell adhesion and morphology ([1]; 100 and 150 μg/ml (tested 50, 100 and 150 μg/ml medium), 24 h): capable of disrupting cell adhesion and altering cell morphology
Peptide Disrupts Adhesion of SKOV3 cells [1]: +
culture time after which the effect on SKOV3 cell adhesion was evident ([1]; more pronounced after 24 h): 9 h
Peptide Binds to E-cad/Fc [2]: −##
Peptide Binds to N-cad/Fc [3]: +#
effect on MCF-7 cell adhesion ([4]; 100 μg/ml): did not affect MCF-7 cell adhesion
Peptide Disrupts Adhesion of MCF-7 cells [4]: −
